In patent US20190231686A1, “METHODS FOR TREATING CYSTIC FIBROSIS AND OTHER DISEASES AFFECTING MUCOSAL SURFACES” (priority 2016, published 2019):

Legend:
[1] = test system: patients with cystic fibrosis; details: single inhalation, CF patients; cited from earlier work
[2] = test system: mucoid CF clinical isolates of P. aeruginosa; details: elevated CO2 concentrations; titration with bicarbonate

N=C(N)NCCC[C@H](N)C(=O)O [L-arginine]
Exhaled NO [1]: significantly increased
FEV1 [1]: sustained improvement

O=C(O)O [bicarbonate]
Alginate expression [2]: suppressed

reduced glutathione [GSH]
Ability of P. aeruginosa to utilize nitrate, nitrite or nitric oxide for respiration to grow (P. aeruginosa; low oxygen conditions such as within biofilm): limits the ability of P. aeruginosa to utilize nitrate, nitrite or nitric oxide for respiration
Aerobic growth of P. aeruginosa (P. aeruginosa; nitrite and nitric oxide in the presence of GSH): inhibit aerobic growth of P. aeruginosa
